Assay results taken from patent publication US20060063791A1, “(Spirocyclylamido)aminothiophene compounds” (priority 2004, published 2006).
Counter-ions that a name gives are not always drawn.

How the values were obtained:
[1] = target: T1, wild-type c-Kit receptor protein endogenously expressed in H526 cells (Homo sapiens, UniProt P10721); test: Assay for inhibition of c-Kit in intact cells (C-KIT H526 cell assay, ELISA of SCF-stimulated tyrosine phosphorylation); assay type: cell-based; details: 3 h compound pre-incubation, SCF stimulation 15 min, read-out: IC50 (concentration of compound that inhibits SCF-induced tyrosine phosphorylation of the c-Kit protein by 50%)
T1 construct: wild-type c-Kit receptor protein that is endogenously expressed in H526 cells; endogenous in cells; host or cells: H526 (ATCC # CRL-5811), human small cell lung cancer
Protocol: C-KIT H526 Cell Assay Protocol
I. Assay for Inhibition of c-Kit in Intact Cells
The ability of compounds to inhibit the tyrosine kinase activity of c-Kit was determined in a cell-based ELISA assay using the H526 cell line (ATCC # CRL-5811), which was originally derived from a human small cell lung cancer. The assay determines the ability of compounds to block ligand-stimulated tyrosine phosphorylation of the wild-type c-Kit receptor protein that is endogenously expressed in H526 cells. Cells are pre-incubated with compounds at various concentrations prior to addition of stem cell factor (SCF), the ligand for the c-Kit receptor tyrosine kinase. Cell lysates are then prepared and the c-Kit protein is captured onto a c-Kit antibody-coated 96-well ELISA plate. The phosphotyrosine content of the receptor protein is then monitored by quantitation of the degree of binding of an antibody that recognizes only the phosphorylated tyrosine residues within the captured protein. The antibody used has a reporter enzyme (e.g. horseradish peroxidase, HRP) covalently attached, such that binding of antibody to phosphorylated c-Kit can be determined quantitatively by incubation with an appropriate HRP substrate.
Cell Lysis Buffer: • 50 mM Tris-HCl, pH 7.4 • 150 mM NaCl • 10% Glycerol • 1% Triton X-100 • 0.5 mM EDTA • 1 μg/mL leupeptin • 1 μg/mL aprotinin • 1 mM Sodium orthovanadate
Anti c-Kit Antibody: • 0.5 μg/mL anti c-Kit Ab-3 (Lab Vision, catalog #MS289P1) in 50 mM Sodium bicarbonate, pH 9.
ELISA Assay Plates: • ELISA assay plates are prepared by addition of 100 μL of anti c-Kit antibody to each well of a 96-well Microlite-2 plate (Dynex, catalog # 7417), followed by incubation at 37° C. for 2 h. The wells are then washed twice with 300 μL wash buffer.
Plate Wash Buffer: • PBS containing 0.5% Tween-20 (PBST)
Cell Assay Medium: • RPMI with 0.1% BSA
pY20-HRP: • 25 ng/mL pY20-HRP (Calbiochem, catalog # 525320) in PBS, containing 0.5% Tween-20, 5% BSA, 1 mM Sodium orthovanadate
HRP Substrate: • Chemoluminescent detection reagent (Pierce, catalog # 37075)
Cultures of H526 cells, growing in RPMI with 10% fetal calf serum, were collected by centrifugation, washed twice with PBS, and suspended in cell assay medium. Cells were then distributed into a V-bottom 96-well plate at 7.5×10^4 cells per well in 100 μL cell assay medium.
Compound dilutions were prepared from 10 mM DMSO stocks by dilution in cell assay medium, the final concentration of DMSO in the assay being 0.1%. To compound incubation wells, 50 μL of the test compound was added (compounds are assayed at concentrations between 0.1 nM and […]); to positive and negative control wells, 50 μL cell assay medium containing 0.1% DMSO was added. The cells were then incubated with compound at 37° C. for 3 h. SCF (R&D Systems, catalog #255-SC-010) was then added in order to stimulate the c-Kit receptor and induce its tyrosine phosphorylation. Then, 10 μL of a 1.6 μg/mL solution of SCF in cell assay medium was added to all wells apart from the negative control wells, and the cells were incubated for an additional 15 min at 37° C. Following the addition of ice-cold PBS, the plate was centrifuged at 1000 rpm for 5 min, the medium removed by aspiration, and the cell pellet lysed by the addition of 120 μL ice-cold cell lysis buffer per well. The plate was kept on ice for 20 min and 100 μL of the cell lysates from each well were then transferred to the wells of an ELISA assay plate and incubated at 4° C. for 16 h.
Following incubation of the cell lysates in the ELISA plate, the wells were washed 4 times with 300 μL wash buffer, then 100 μL of the phosphotyrosine detection antibody pY20-HRP was added to each well and the plate incubated at rt for 2 h. The wells were then washed 4 times with 300 μL wash buffer. Then, 50 μL of the chemiluminescent HRP substrate was added to each well for luminometric quantitation of the amount of antiphosphotyrosine-HRP conjugate bound to the plate. […]

[2] = system: MO7e human leukemia cells; details: cited from earlier work
[3] = system: MO7e human leukemia cells; details: cited from earlier work; remark: listed apart in the source

T1 sequence (P10721 26-976): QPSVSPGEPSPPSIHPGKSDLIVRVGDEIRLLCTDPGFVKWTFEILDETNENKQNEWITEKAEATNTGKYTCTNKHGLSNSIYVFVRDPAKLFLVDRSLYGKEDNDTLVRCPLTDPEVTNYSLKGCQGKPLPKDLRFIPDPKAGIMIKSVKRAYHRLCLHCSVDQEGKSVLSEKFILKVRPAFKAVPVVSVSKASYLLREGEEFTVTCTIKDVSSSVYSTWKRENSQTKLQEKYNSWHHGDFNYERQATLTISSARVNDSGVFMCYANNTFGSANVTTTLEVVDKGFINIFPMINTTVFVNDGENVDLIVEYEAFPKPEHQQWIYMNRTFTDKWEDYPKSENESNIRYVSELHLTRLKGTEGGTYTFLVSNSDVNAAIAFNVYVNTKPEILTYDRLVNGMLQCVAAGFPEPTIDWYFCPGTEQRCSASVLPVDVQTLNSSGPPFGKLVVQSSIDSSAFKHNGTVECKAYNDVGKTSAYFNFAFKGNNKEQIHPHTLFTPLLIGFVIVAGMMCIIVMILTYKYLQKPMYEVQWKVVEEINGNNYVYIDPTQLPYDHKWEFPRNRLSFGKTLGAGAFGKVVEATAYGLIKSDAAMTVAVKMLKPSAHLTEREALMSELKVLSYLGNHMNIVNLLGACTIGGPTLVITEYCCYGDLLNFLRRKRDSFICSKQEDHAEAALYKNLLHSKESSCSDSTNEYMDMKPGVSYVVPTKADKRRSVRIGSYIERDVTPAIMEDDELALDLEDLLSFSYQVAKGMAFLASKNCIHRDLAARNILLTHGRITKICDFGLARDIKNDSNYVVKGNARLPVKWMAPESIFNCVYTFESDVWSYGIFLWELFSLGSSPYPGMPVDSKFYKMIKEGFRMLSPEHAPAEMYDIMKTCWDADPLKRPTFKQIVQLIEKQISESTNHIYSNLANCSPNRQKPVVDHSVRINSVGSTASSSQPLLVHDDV

Compound | IC50 [1] | further results
CN1CCN[C@]2(CC[C@@H](NC(=O)c3sccc3NCc3ccnc4ccccc34)CC2)C1=O [Compound 1, cis-N-(4-Methyl-5-oxo-1,4-diazaspiro[5.5]undec-9-yl)-3-[(quinolin-4-ylmethyl)amino]thiophene-2-carboxamide] | > 15 µM | –
O=C1NC(=O)C2(CCC(NC(=O)c3sccc3NCc3ccnc4ccccc34)CC2)N1 (stereo not drawn) [Compound 4, N-(2,4-Dioxo-1,3-diazaspiro[4.5]dec-8-yl)-3-[(quinolin-4-ylmethyl)amino]thiophene-2-carboxamide] | > 15 µM | –
Cc1csc(C(=O)NC2CCC3(CC2)NC(=O)N(CCC(C)C)C3=O)c1NCc1ccnc2ccccc12 (stereo not drawn) [Compound 5, N-[3-(3-Methylbutyl)-2,4-dioxo-1,3-diazaspiro[4.5]dec-8-yl]-4-methyl-3-[(quinolin-4-ylmethyl)amino]thiophene-2-carboxamide] | > 15 µM | –
Cc1ccc(NC(=O)c2ccc(CN3CCN(C)CC3)cc2)cc1Nc1nccc(-c2cccnc2)n1 [Gleevec, imatinib mesylate] | – | GM-CSF stimulated growth [2]: not affected; apoptosis ([3]; Kit ligand-stimulated conditions): induces apoptosis; Kit ligand-stimulated growth ([3]; Kit ligand-stimulated): inhibited

More lines, main results first:

IC50 [1] | Compound | further results
> 15 µM | O=C(N[C@H]1CC[C@@]2(CC1)CC(=O)N(Cc1ccccc1)N2)c1sccc1NCc1ccnc2ccccc12 [Compound 2, cis-N-(2-Benzyl-3-oxo-1,2-diazaspiro[4.5]dec-8-yl)-3-[(quinolin-4-ylmethyl)amino]thiophene-2-carboxamide] | –
> 15 µM | O=C(NC1CCC2(CC1)NC(=O)N(Cc1ccccc1)C2=O)c1sccc1NCc1ccnc2ccccc12 (stereo not drawn) [Compound 3, N-(3-Benzyl-2,4-dioxo-1,3-diazaspiro[4.5]dec-8-yl)-3-[(quinolin-4-ylmethyl)amino]thiophene-2-carboxamide] | –
> 15 µM | O=C(Nc1ccc2c(c1)C1(CCN(C(=O)OCc3ccccc3)CC1)CN2)c1sccc1NCc1ccnc2ccccc12 [Compound 6] | –
